Results reported in ChEMBL document CHEMBL3112480, “γ-Alkylidene-γ-lactones and isobutylpyrrol-2(5H)-ones analogues to rubrolides as inhibitors of biofilm formation by gram-positive and gram-negative bacteria” (Bioorg Med Chem Lett, 2014).
≈ marks a conversion by molar mass, not a printed value. Each block holds one compound with its values, some of them ahead of it.

Assays:
[1] = system: Staphylococcus aureus; assay: Antibacterial activity against Staphylococcus aureus ATCC 25923 assessed as effect on planktonic growth at 5.5 ug/ml after 20 hrs relative to control; type: functional
[2] = system: Streptococcus mutans; assay: Antibacterial activity against Streptococcus mutans ATCC 25175 assessed as effect on planktonic growth at 10.9 ug/ml after 20 hrs relative to control; type: functional
[3] = system: Pseudomonas aeruginosa; assay: Antibacterial activity against Pseudomonas aeruginosa ATCC 27853 assessed as effect on planktonic growth at 1.37 ug/ml after 20 hrs relative to control; type: functional
[4] = system: Pseudomonas aeruginosa; assay: Antibacterial activity against Pseudomonas aeruginosa ATCC 27853 assessed as effect on planktonic growth at 5.5 ug/ml after 20 hrs relative to control; type: functional
[5] = system: Pseudomonas aeruginosa; assay: Antibacterial activity against Pseudomonas aeruginosa ATCC 27853 assessed as effect on planktonic growth at 10.9 ug/ml after 20 hrs relative to control; type: functional
[6] = system: Streptococcus mutans; assay: Antibacterial activity against Streptococcus mutans ATCC 25175 assessed as effect on planktonic growth at 5.5 ug/ml after 20 hrs relative to control; type: functional
[7] = system: Staphylococcus epidermidis; assay: Antibacterial activity against Staphylococcus epidermidis ATCC 35547 assessed as effect on planktonic growth at 1.37 ug/ml after 20 hrs relative to control; type: functional
[8] = system: Streptococcus mutans; assay: Antibacterial activity against Streptococcus mutans ATCC 25175 assessed as effect on planktonic growth at 0.68 ug/ml after 20 hrs relative to control; type: functional
[9] = system: Pseudomonas aeruginosa; assay: Antibacterial activity against Pseudomonas aeruginosa ATCC 27853 assessed as inhibition of biofilm formation after 20 hrs by crystal-violet staining method; type: functional, organism-based; settings: for IC50: ATCC 27853, 20 h
[10] = system: Staphylococcus epidermidis; assay: Antibacterial activity against Staphylococcus epidermidis ATCC 35547 assessed as effect on planktonic growth at 43.8 ug/ml after 20 hrs relative to control; type: functional
[11] = system: Staphylococcus aureus; assay: Antibacterial activity against Staphylococcus aureus ATCC 25923 assessed as effect on planktonic growth at 43.8 ug/ml after 20 hrs relative to control; type: functional
[12] = system: Pseudomonas aeruginosa; assay: Antibacterial activity against Pseudomonas aeruginosa ATCC 27853 assessed as effect on planktonic growth at 0.68 ug/ml after 20 hrs relative to control; type: functional
[13] = system: Staphylococcus aureus; assay: Antibacterial activity against Staphylococcus aureus ATCC 25923 assessed as effect on planktonic growth at 10.9 ug/ml after 20 hrs relative to control; type: functional
[14] = system: Staphylococcus epidermidis; assay: Antibacterial activity against Staphylococcus epidermidis ATCC 35547 assessed as effect on planktonic growth at 0.34 ug/ml after 20 hrs relative to control; type: functional
[15] = system: Staphylococcus epidermidis; assay: Antibacterial activity against Staphylococcus epidermidis ATCC 35547 assessed as effect on planktonic growth at 2.73 ug/ml after 20 hrs relative to control; type: functional
[16] = system: Staphylococcus epidermidis; assay: Antibacterial activity against Staphylococcus epidermidis ATCC 35547 assessed as effect on planktonic growth at 10.9 ug/ml after 20 hrs relative to control; type: functional
[17] = system: Staphylococcus epidermidis; assay: Antibacterial activity against Staphylococcus epidermidis ATCC 35547 assessed as effect on planktonic growth at 5.5 ug/ml after 20 hrs relative to control; type: functional
[18] = system: Staphylococcus aureus; assay: Antibacterial activity against Staphylococcus aureus ATCC 25923 assessed as effect on planktonic growth at 0.68 ug/ml after 20 hrs relative to control; type: functional
[19] = system: Streptococcus mutans; assay: Antibacterial activity against Streptococcus mutans ATCC 25175 assessed as effect on planktonic growth at 2.73 ug/ml after 20 hrs relative to control; type: functional
[20] = system: Staphylococcus epidermidis; assay: Antibacterial activity against Staphylococcus epidermidis ATCC 35547 assessed as effect on planktonic growth at 21.9 ug/ml after 20 hrs relative to control; type: functional
[21] = system: Pseudomonas aeruginosa; assay: Antibacterial activity against Pseudomonas aeruginosa ATCC 27853 assessed as effect on planktonic growth at 2.73 ug/ml after 20 hrs relative to control; type: functional
[22] = system: Pseudomonas aeruginosa; assay: Antibacterial activity against Pseudomonas aeruginosa ATCC 27853 assessed as effect on planktonic growth at 87.5 ug/ml after 20 hrs relative to control; type: functional
[23] = system: Streptococcus mutans; assay: Antibacterial activity against Streptococcus mutans ATCC 25175 assessed as effect on planktonic growth at 87.5 ug/ml after 20 hrs relative to control; type: functional
[24] = system: Streptococcus mutans; assay: Antibacterial activity against Streptococcus mutans ATCC 25175 assessed as effect on planktonic growth at 0.34 ug/ml after 20 hrs relative to control; type: functional
[25] = system: Staphylococcus aureus; assay: Antibacterial activity against Staphylococcus aureus ATCC 25923 assessed as effect on planktonic growth at 87.5 ug/ml after 20 hrs relative to control; type: functional
[26] = system: Streptococcus mutans; assay: Antibacterial activity against Streptococcus mutans ATCC 25175 assessed as effect on planktonic growth at 0.17 ug/ml after 20 hrs relative to control; type: functional
[27] = system: Pseudomonas aeruginosa; assay: Antibacterial activity against Pseudomonas aeruginosa ATCC 27853 assessed as effect on planktonic growth at 0.34 ug/ml after 20 hrs relative to control; type: functional
[28] = system: Staphylococcus epidermidis; assay: Antibacterial activity against Staphylococcus epidermidis ATCC 35547 assessed as inhibition of biofilm formation after 20 hrs by crystal-violet staining method; type: functional, organism-based; settings: for IC50: ATCC 35547, 20 h
[29] = system: Staphylococcus epidermidis; assay: Antibacterial activity against Staphylococcus epidermidis ATCC 35547 assessed as effect on planktonic growth at 87.5 ug/ml after 20 hrs relative to control; type: functional
[30] = system: Pseudomonas aeruginosa; assay: Antibacterial activity against Pseudomonas aeruginosa ATCC 27853 assessed as effect on planktonic growth at 0.17 ug/ml after 20 hrs relative to control; type: functional
[31] = system: Staphylococcus aureus; assay: Antibacterial activity against Staphylococcus aureus ATCC 25923 assessed as effect on planktonic growth at 2.73 ug/ml after 20 hrs relative to control; type: functional
[32] = system: Staphylococcus aureus; assay: Antibacterial activity against Staphylococcus aureus ATCC 25923 assessed as effect on planktonic growth at 0.34 ug/ml after 20 hrs relative to control; type: functional
[33] = system: Streptococcus mutans; assay: Antibacterial activity against Streptococcus mutans ATCC 25175 assessed as effect on planktonic growth at 43.8 ug/ml after 20 hrs relative to control; type: functional
[34] = system: Streptococcus mutans; assay: Antibacterial activity against Streptococcus mutans ATCC 25175 assessed as effect on planktonic growth at 21.9 ug/ml after 20 hrs relative to control; type: functional
[35] = system: Staphylococcus aureus; assay: Antibacterial activity against Staphylococcus aureus ATCC 25923 assessed as effect on planktonic growth at 1.37 ug/ml after 20 hrs relative to control; type: functional
[36] = system: Staphylococcus aureus; assay: Antibacterial activity against Staphylococcus aureus ATCC 25923 assessed as effect on planktonic growth at 0.17 ug/ml after 20 hrs relative to control; type: functional
[37] = system: Staphylococcus epidermidis; assay: Antibacterial activity against Staphylococcus epidermidis ATCC 35547 assessed as effect on planktonic growth at 0.17 ug/ml after 20 hrs relative to control; type: functional
[38] = system: Staphylococcus epidermidis; assay: Antibacterial activity against Staphylococcus epidermidis ATCC 35547 assessed as effect on planktonic growth at 0.68 ug/ml after 20 hrs relative to control; type: functional
[39] = system: Pseudomonas aeruginosa; assay: Antibacterial activity against Pseudomonas aeruginosa ATCC 27853 assessed as effect on planktonic growth at 21.9 ug/ml after 20 hrs relative to control; type: functional
[40] = system: Staphylococcus aureus; assay: Antibacterial activity against Staphylococcus aureus ATCC 25923 assessed as effect on planktonic growth at 21.9 ug/ml after 20 hrs relative to control; type: functional
[41] = system: Pseudomonas aeruginosa; assay: Antibacterial activity against Pseudomonas aeruginosa ATCC 27853 assessed as effect on planktonic growth at 43.8 ug/ml after 20 hrs relative to control; type: functional
[42] = system: Streptococcus mutans; assay: Antibacterial activity against Streptococcus mutans ATCC 25175 assessed as effect on planktonic growth at 1.37 ug/ml after 20 hrs relative to control; type: functional

IC50 [9]: 2.5 µg/mL (≈ 4.39 µM) | IC50 [28]: > 87.5 µg/mL
Compound: COc1ccc(Br)cc1C1=C(Br)C(=O)N(CC(C)C)/C1=C/c1ccc(Br)cc1
Activity [1]: 14.9% | Activity [2]: 7.6% | Activity [3]: -19.3% | Activity [4]: -16.1% | Activity [5]: -15.5% | Activity [6]: 10.1% | Activity [7]: -1.2% | Activity [8]: 14.4% | inhibition [9]: Dose-dependent effect | Activity [10]: 7.7% | Activity [11]: 36.6% | Activity [12]: -5.5% | Activity [13]: 16.8% | Activity [14]: 0.4% | Activity [15]: -5.7% | Activity [16]: 1% | Activity [17]: 2.7% | Activity [18]: 18.5% | Activity [19]: 12% | Activity [20]: -1% | Activity [21]: -17.1% | Activity [22]: -8.2% | Activity [23]: 22.8% | Activity [24]: 12% | Activity [25]: 68.6% | Activity [26]: 13.9% | Activity [27]: 2.6% | inhibition [28]: Dose-dependent effect | Activity [29]: 11.4% | Activity [30]: 0.9% | Activity [31]: 15.4% | Activity [32]: 6.3% | Activity [33]: 9% | Activity [34]: 6% | Activity [35]: 9.4% | Activity [36]: 2.2% | Activity [37]: -3.3% | Activity [38]: -2.1% | Activity [39]: -11.7% | Activity [40]: 27.8% | Activity [41]: -6.2% | Activity [42]: -3.3%

IC50 [9]: 0.7 µg/mL (≈ 1.33 µM) | IC50 [28]: > 87.5 µg/mL
Compound: COc1ccc(Cl)cc1C1=C(Br)C(=O)N(CC(C)C)/C1=C\c1ccccc1Br
Activity [1]: 2.5% | Activity [2]: -3.3% | Activity [3]: 0.4% | Activity [4]: -5.5% | Activity [5]: -11.5% | Activity [6]: -1.6% | Activity [7]: -3.8% | Activity [8]: 11% | inhibition [9]: Dose-dependent effect | Activity [10]: 13.5% | Activity [11]: 23.6% | Activity [12]: -0.1% | Activity [13]: -1.2% | Activity [14]: -0.2% | Activity [15]: -6% | Activity [16]: -3.2% | Activity [17]: -5.7% | Activity [18]: 12.2% | Activity [19]: 9.6% | Activity [20]: 2.1% | Activity [21]: -3.1% | Activity [22]: 10% | Activity [23]: 23.4% | Activity [24]: 10.4% | Activity [25]: 48% | Activity [26]: 12.4% | Activity [27]: -4% | inhibition [28]: Dose-dependent effect | Activity [29]: 6.9% | Activity [30]: -2.5% | Activity [31]: 2.7% | Activity [32]: 17.2% | Activity [33]: 7.4% | Activity [34]: 10.4% | Activity [35]: 12.4% | Activity [36]: 11.2% | Activity [37]: -2.5% | Activity [38]: -5.2% | Activity [39]: -9.6% | Activity [40]: 7.5% | Activity [41]: -6.6% | Activity [42]: 8.5%
